Experimental data reported in patent US5726159A, “Antithrombotic agents” (Eli Lilly and Company, priority 1995, dated 1998).
Counter-ions that a name gives are not always drawn.

Key:
Format in all cases: biochemical
[1] = molecular target: T1, t-PA (Homo sapiens, UniProt P00750); assay: Kass for t-PA, chromogenic substrate
T1 construct: purchased American Diagnostica, Greenwich, Conn
Description: (§1) By substantially following the procedures described above for human thrombin, and using other human blood coagulation system serine proteases and proteases of the fibrinolytic system with the appropriate chromogenic substrates, identified below, selectivity of the compounds of the present invention with respect to the coagulation factor serine proteases and with respect to the fibrinolytic system serine proteases are evaluated as well as their substantial lack of interference with serine proteases of the fibrinolytic system. […] This would be important to the therapeutic use of such agents as an adjunct to streptokinase, t-PA or urokinase thrombolytic therapy and to the use of such agents as an endogenous fibrinolysis-sparing (with respect to t-PA and urokinase) antithrombotic agent. In addition to the lack of interference with the amidase activity of the fibrinolytic proteases, such fibrinolytic system sparing can be studied by the use of human plasma clots and their lysis by the respective fibrinolytic plasminogen activators.

[2] = test system: Human plasma; assay: Human plasma anticoagulation, thrombin time (TT); conditions: concentration required to double the clotting time
Description: (§2) Dog plasma and rat plasma is obtained from conscious mixed-breed hounds (either sex, Hazelton-LRE, Kalamazoo, Mich., U.S.A.) or from anesthetized male Sprague-Dawley rats (Harlan Sprague-Dawley, Inc., Indianapolis, Ind., U.S.A.) by venipuncture into 3.8 percent citrate. Fibrinogen is prepared from in-date ACD human blood as the fraction I-2 according to previous procedures and specifications. […] Human fibrinogen is also purchased as 98 percent pure/plasmin free from American Diagnostica, Greenwich, Conn. Coagulation reagents ACTIN, Thromboplastin, and Human plasma are from Baxter Healthcare Corp., Dade Division, Miami, Fla. Bovine thrombin from Parke-Davis ([…], Mich.) is used for coagulation assays in plasma.
(§3) Coagulation assay procedures are as previously described. […] A CoAScreener coagulation instrument (American LABor, Inc.) is used for all coagulation assay measurements. The prothrombin time (PT) is measured by adding 0.05 mL saline and 0.05 mL Thromboplastin-C reagent to 0.05 mL test plasma. The activated partial thromboplastin time (APTT) is measured by incubation of 0.05 mL test plasma with 0.05 mL Actin reagent for 120 seconds followed by 0.05 mL CaCl2 (0.02M). The thrombin time (TT) is measured by adding 0.05 mL saline and 0.05 mL thrombin (10 NIH units/mL) to 0.05 mL test plasma. The compounds of Formula I are added to human or animal plasma over a wide range of concentrations to determine prolongation effects on the APTT, PT, and TT assays. Linear extrapolations are performed to estimate the concentrations required to double the clotting time for each assay.

[3] = test system: Human plasma; assay: Human plasma anticoagulation, activated partial thromboplastin time (APTT); conditions: concentration required to double the clotting time
Description: as §2, §3

[4] = test system: Human plasma; assay: Human plasma anticoagulation, prothrombin time (PT); conditions: concentration required to double the clotting time
Description: as §2, §3

[5] = molecular target: T2, Bovine trypsin (Bos taurus, UniProt P00760); assay: Kass for trypsin, chromogenic substrate
T2 construct: Bovine trypsin is purchased from Worthington Biochemicals, Freehold, N.J; purchased Worthington Biochemicals, Freehold, N.J
T2 sequence (P00760 24-246): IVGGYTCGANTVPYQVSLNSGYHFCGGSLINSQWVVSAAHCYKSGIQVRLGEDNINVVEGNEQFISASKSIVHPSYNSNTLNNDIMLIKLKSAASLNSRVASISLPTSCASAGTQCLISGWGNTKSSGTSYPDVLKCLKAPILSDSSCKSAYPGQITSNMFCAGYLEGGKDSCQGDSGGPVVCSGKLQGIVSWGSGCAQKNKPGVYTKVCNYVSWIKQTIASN
Description: as §1
Chromogenic substrates: N-Benzoyl-Ile-Glu-Gly-Arg-p-nitroanilide (for factor Xa); N-Cbz-D-Arg-Gly-Arg-p-nitroanilide (for factor IXa assay as the factor Xa substrate); Pyroglutamyl-Pro-Arg-p-nitroanilide (for Factor XIa and for aPC); H-D-Pro-Phe-Arg-p-nitroanilide (for factor XIIa); and Pyroglutamyl-Gly-Arg-p-nitroanilide (for urokinase); are purchased from KabiVitrnm, Stockholm, Sweden, or from Midwest Biotech, Fishers, Ind. Bovine trypsin is purchased from Worthington Biochemicals, Freehold, N.J., and human plasma kallikrein from Kabi Vitrum, Stockholm, Sweden. Chromogenic substrate H-D-Pro-Phe-Arg-p-nitroanilide for plasma kallikrein is purchased from Kabi Vitrum, Stockholm, Sweden. N-Benzoyl-Phe-Val-Arg-p-nitroanilide, the substrate for human thrombin and for trypsin, is synthesized according to procedures described above for the compounds of the present invention, using known methods of peptide coupling from commercially available reactants or purchased from Midwest Biotech, Fishers, Ind.

T1 sequence (P00750 36-562): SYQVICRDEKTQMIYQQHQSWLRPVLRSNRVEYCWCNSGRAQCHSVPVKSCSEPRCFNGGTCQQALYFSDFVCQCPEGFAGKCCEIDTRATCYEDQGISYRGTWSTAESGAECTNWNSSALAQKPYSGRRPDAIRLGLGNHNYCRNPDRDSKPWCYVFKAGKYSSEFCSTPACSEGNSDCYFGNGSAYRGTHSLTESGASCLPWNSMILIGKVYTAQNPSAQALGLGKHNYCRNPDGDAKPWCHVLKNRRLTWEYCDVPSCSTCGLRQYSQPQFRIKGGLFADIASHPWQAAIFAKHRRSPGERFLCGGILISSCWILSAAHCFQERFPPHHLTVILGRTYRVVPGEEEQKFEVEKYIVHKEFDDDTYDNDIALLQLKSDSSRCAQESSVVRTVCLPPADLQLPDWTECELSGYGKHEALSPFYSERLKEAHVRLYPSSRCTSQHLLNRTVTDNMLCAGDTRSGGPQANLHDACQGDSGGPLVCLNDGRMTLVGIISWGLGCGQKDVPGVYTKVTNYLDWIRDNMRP

| Molecule | Kass t-PA [1] | 2x Clotting time TT [2] | 2x Clotting time APTT [3] | 2x Clotting time PT [4] | Kass Trypsin [5] |
| --- | --- | --- | --- | --- | --- |
| N=C(N)NCCCCCNC(=O)[C@@H]1CCCN1C(=O)[C@H](N)Cc1ccccc1 [Example 6, D-Phe-Pro-NH(CH2)5 NHC(NH)NH2.HCl] | < 0.001 | 390 ng/mL | – | – | – |
| CCS(=O)(=O)N[C@H](Cc1ccccc1)C(=O)N1[C@H](C(=O)NCc2ccc(C(=N)N)cc2)C[C@@H]2CCCC[C@@H]21 (relative stereo) [Example 45, EtSO2 -Phe-cis-Ohi-p-NHCH2 C6 H4 C(NH)NH2.HCl] | – | 8 ng/mL | 200 ng/mL | 330 ng/mL | 110. × 10^6 (L/mole) |
| N=C(N)c1ccc(CNC(=O)[C@@H]2C[C@@H]3CCCC[C@@H]3N2C(=O)[C@@H](Cc2ccccc2)NCC(=O)O)cc1 (relative stereo) [Example 47, HOOCCH2 -D-Phe-cis-Ohi-p-NHCH2 C6 H4 C(NH)NH2.HCl] | 0.01 × 10^6 (L/mole) | 12. ng/mL | 140 ng/mL | 270 ng/mL | 82. × 10^6 (L/mole) |
| N=C(N)c1cccc(CNC(=O)[C@@H]2CCCN2C(=O)[C@@H]2NCC[C@@H]3CCCC[C@@H]32)c1 [Example 25, D-1-Piq-Pro-m-NHCH2 -C6 H4 C(=NH)NH2.HCl] | 0.01 × 10^6 (L/mole) | 1,430 ng/mL | 34,600 ng/mL | 40,400 ng/mL | – |
| N=C(N)c1ccc(CNC(=O)[C@@H]2C[C@@H]3CCCC[C@@H]3N2C(=O)[C@H]2C[C@H]3CCCC[C@H]3CN2)cc1 (relative stereo) [Example 43, D-3-Piq-cis-Ohi-p-NHCH2 C6 H4 C(NH)NH2.2HCl] | 0.01 × 10^6 (L/mole) | 280 ng/mL | 1,100 ng/mL | 930 ng/mL | 100. × 10^6 (L/mole) |
| N=C(N)c1ccc(CNC(=O)[C@@H]2CCCN2C(=O)[C@@H](CC2CCCCC2)NCC(=O)O)cc1 [Example 48, HOOCCH2 -D-Cha-Pro-p-NHCH2 C6 H4 C(NH)NH2.HCl] | – | 2. ng/mL | 33 ng/mL | 59 ng/mL | 250. × 10^6 (L/mole) |
| CCS(=O)(=O)N[C@H](Cc1ccccc1)C(=O)N1CCC[C@H]1C(=O)NCc1ccc(NC(=N)N)cc1 [Example 34, EtSO2 -D-Phe-Pro-p-NHCH2 C6 H4 NHC(NH)NH2.HCl] | 0.01 × 10^6 (L/mole) | 530 ng/mL | 4,900 ng/mL | 5,500 ng/mL | – |
| CCS(=O)(=O)N[C@H](CC1CCCCC1)C(=O)N1CCC[C@H]1C(=O)NCc1ccc(C(=N)N)cc1 [Example 80, EtSO2 -D-Cha-Pro-4-NHCH2 C6 H4 C(NH)NH2.HCl] | – | 4 ng/mL | 40 ng/mL | 130 ng/mL | 90. × 10^6 (L/mole) |
| N=C(N)c1ccc(CCCNC(=O)[C@@H]2CCCN2C(=O)[C@@H]2NCC[C@@H]3CCCC[C@@H]32)cc1 [Example 32, 1-Piq-Pro-p-NHCH2 CH2 CH2 -C6 H4 C(=NH)NH2.HCl] | 0.01 × 10^6 (L/mole) | 3,100 ng/mL | 28,500 ng/mL | 47,800 ng/mL | – |
| N=C(N)c1ccc(CNC(=O)[C@@H]2CCCN2C(=O)[C@H]2C[C@H]3CCCC[C@H]3CN2)cc1 [Example 19, D-3-Piq-Pro-p-NHCH2 C6 H4 C(NH)NH2.3HCl] | – | 58 ng/mL | 300 ng/mL | 540 ng/mL | – |
| N=C(N)c1ccc(CNC(=O)[C@@H]2C[C@@H]3CCCC[C@@H]3N2C(=O)[C@@H](CC2CCCCC2)NCC(=O)O)cc1 (relative stereo) [Example 49, HOOCCH2 -D-Cha-cis-Ohi-p-NHCH2 C6 H4 C(NH)NH2.HCl] | – | 5 ng/mL | 130 ng/mL | 130 ng/mL | 940. × 10^6 (L/mole) |
| N=C(N)c1ccc(CNC(=O)[C@@H]2CCCN2C(=O)[C@@H](CC2CCCCC2)NCC(=O)O)c(F)c1 [Example 71, HO2 CCH2 -D-Cha-Pro-4-NHCH2 -3-F-benzamidine.HCl] | – | 1 ng/mL | 89 ng/mL | 150 ng/mL | 240. × 10^6 (L/mole) |
| N=C(N)c1cccc(CNC(=O)[C@@H]2CCCN2C(=O)[C@H](N)Cc2ccccc2)c1 [Example 16, D-Phe-Pro-m-NHCH2 C6 H4 C(NH)NH2.0.75HCl] | – | 650 ng/mL | 8,600 ng/mL | 8,500 ng/mL | – |
| 1-Piq-Pro-p-NHCH2 C6 H4 C(NH)NH2.2HCl [Example 18] | – | 7 ng/mL | 79 ng/mL | 170 ng/mL | – |
| N=C(N)N1CCC(CCNC(=O)[C@@H]2CCCN2C(=O)[C@@H](CC2CCCCC2)NCC(=O)O)CC1 [Example 57, HO2 CCH2 -D-Cha-Pro-4-NHCH2 CH2 -1-amidinopiperidine.HCl] | – | 14 ng/mL | 360 ng/mL | 340 ng/mL | – |
| CCS(=O)(=O)N[C@H](Cc1ccccc1)C(=O)N1CCC[C@H]1C(=O)NCc1cccc(C(=N)N)c1 [Example 24, EtSO2 -D-Phe-Pro-m-NHCH2 -C6 H4 C(=NH)NH2.HCl] | – | 1,000 ng/mL | 25,900 ng/mL | 25,000 ng/mL | – |
| N=C(N)Nc1cccc(CCNC(=O)[C@@H]2CCCN2C(=O)[C@@H]2NCC[C@@H]3CCCC[C@@H]32)c1 [Example 41, D-1-Piq-Pro-m-NHCH2 CH2 C6 H4 NHC(NH)NH2.2HCl] | – | 82,200 ng/mL | > 91,000 ng/mL | > 91,000 ng/mL | – |
| CCS(=O)(=O)N[C@H](CC1CCCCC1)C(=O)N1CCC[C@H]1C(=O)NCc1ccc(N)nc1 [Example 84, EtSO2 -D-Cha-Pro-5-NHCH2 -2-aminopyridine.HCl] | – | 110 ng/mL | 1,500 ng/mL | 1,900 ng/mL | – |
| N=C(N)c1ccc(CNC(=O)CN(CCc2ccccc2)C(=O)CNCC(=O)O)cc1 [Example 89, HOOCCH2 -Gly-N-C6 H5 CH2 CH2 Gly-p-NHCH2 C6 H4 C(NH)NH2.HCl] | – | 570 ng/mL | 51,000 ng/mL | 37,000 ng/mL | – |
